Laboratory results taken from patent publication US12281122B1, “PI3K inhibitors” (Cogent Biosciences, Inc., priority 2023, dated 2025).

How the values were obtained:
[1] = test system: T47D (PI3Kα-H1047R) cell line; test: HTRF phospho-AKT(S473) cell assay in T47D cells; assay type: cell-based, human
Procedure, shortened: (§1)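 T47D: RPMI + 10% FBS + 0.2 units/mL insulin, top 5 μM. SKBR3: McCoy's 5A + 10% FBS, top 10 μM, 70 ng/ml PDGF-BB last 15 min. Both: 12-pt 1:3, 2 h, 37° C, max 0.5% DMSO; HTRF pAKT(S473); IC50.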

[2] = test system: SKBR3 (PI3Kα-Wild Type) cell line; test: HTRF phospho-AKT(S473) cell assay in SKBR3 cells; assay type: cell-based, human
Procedure, shortened: as §1

[3] = Homo sapiens; HTRF phospho-AKT(S473), T47D (PI3Kα-H1047R) cells, 2 hours compound incubation
[4] = Homo sapiens, SK-BR-3; HTRF phospho-AKT(S473), SKBR3 (PI3Kα-Wild Type) cells, 2 hours compound incubation, PDGF-BB stimulated
[5] = Homo sapiens; T47D (PI3Kα-H1047R) cells, HTRF phospho-AKT(S473), 2 hours compound incubation
[6] = Homo sapiens, SK-BR-3; SKBR3 (PI3Kα-Wild Type) cells, HTRF phospho-AKT(S473), 2 hours compound incubation, PDGF-BB stimulated

Row | SMILES | IC50 [1, 3] [nM] | IC50 [2, 4] [nM] | IC50 [1, 5] [nM] | IC50 [2, 6] [nM]
1 | Cc1ccc(N2C[C@H]3C[C@@H]2CN3c2nc3c([C@@H](C)Nc4ccc(Cl)nc4C(=O)NS(C)(=O)=O)cc(C)cc3c(=O)n2C)nc1 [Compound 609, 6-chloro-3-(((R)-1-(3,6-dimethyl-2-((1R,4R)-5-(5-methylpyridin-2-yl)-2,5-diazabicyclo [2.2.1]heptan-2-yl)-4-oxo-3,4-dihydroquinazolin-8-yl)ethyl)amino)-N-(methylsulfonyl) picolinamide] | 500 to 1000 | ≥ 5000 | – | –
2 | Cc1cc([C@@H](C)Nc2ccc(Cl)nc2C(=O)NS(C)(=O)=O)c2nc(N3CCC(n4ccccc4=O)CC3)n(C)c(=O)c2c1 [Compound 677, (R)-6-chloro-3-((1-(3,6-dimethyl-4-oxo-2-(4-(2-oxopyridin-1(2H)-yl)piperidin-1-yl)-3,4-dihydroquinazolin-8-yl)ethyl)amino)-N-(methylsulfonyl) picolinamide] | 250 to 500 | ≥ 5000 | – | –
3 | Cc1cc([C@@H](C)Nc2ccc(Cl)nc2C(=O)NS(C)(=O)=O)c2nc(N3CCC(c4ncc(C)o4)CC3)n(C)c(=O)c2c1 [Compound 728, (R)-6-chloro-3-((1-(3,6-dimethyl-2-(4-(5-methyloxazol-2-yl)piperidin-1-yl)-4-oxo-3,4-dihydroquinazolin-8-yl)ethyl)amino)-N-(methylsulfonyl) picolinamide] | 250 to 500 | 1000 to 5000 | – | –
4 | Cc1cc([C@@H](C)Nc2ccc(Cl)nc2C(=O)NS(C)(=O)=O)c2nc(N3CCC(c4c(F)cnn4C)CC3)n(C)c(=O)c2c1 [Compound 412, (R)-6-chloro-3-((1-(2-(4-(4-fluoro-1-methyl-1H-pyrazol-5-yl)piperidin-1-yl)-3,6-dimethyl-4-oxo-3,4-dihydroquinazolin-8-yl)ethyl)amino)-N-(methylsulfonyl) picolinamide] | – | – | < 250 | 1000 to 5000
5 | Cc1cc([C@@H](C)Nc2ccc(Cl)nc2C(=O)NS(C)(=O)=O)c2nc(N3CCC(c4cn(C)nn4)CC3)n(C)c(=O)c2c1 [Compound 480, (R)-6-chloro-3-((1-(3,6-dimethyl-2-(4-(1-methyl-1H-1,2,3-triazol-4-yl)piperidin-1-yl)-4-oxo-3,4-dihydroquinazolin-8-yl)ethyl)amino)-N-(methylsulfonyl) picolinamide] | < 250 | 1000 to 5000 | – | –
6 | Cc1cc([C@@H](C)Nc2ccc(Cl)nc2C(=O)NS(C)(=O)=O)c2nc(C3CCN(c4ncc(C#N)cc4C)CC3)n(C)c(=O)c2c1 [Compound 837, (R)-6-chloro-3-((1-(2-(1-(5-cyano-3-methylpyridin-2-yl)piperidin-4-yl)-3,6-dimethyl-4-oxo-3,4-dihydroquinazolin-8-yl)ethyl)amino)-N-(methylsulfonyl) picolinamide] | 250 to 500 | 1000 to 5000 | – | –
7 | Cc1cc([C@@H](C)Nc2ccc(Cl)nc2C(=O)NS(C)(=O)=O)c2nc(N3CCC(n4ncnc4C)CC3)n(C)c(=O)c2c1 [Compound 549, (R)-6-chloro-3-((1-(3,6-dimethyl-2-(4-(5-methyl-1H-1,2,4-triazol-1-yl)piperidin-1-yl)-4-oxo-3,4-dihydroquinazolin-8-yl)ethyl)amino)-N-(methylsulfonyl) picolinamide] | < 250 | 1000 to 5000 | – | –
8 | C[C@@H](Nc1ccc(Cl)nc1C(=O)NS(C)(=O)=O)c1cc(C(F)(F)F)cc2c(=O)n(C)c(N3CCC(c4nn(C)cc4F)CC3)nc12 [Compound 453, (R)-6-chloro-3-((1-(2-(4-(4-fluoro-1-methyl-1H-pyrazol-3-yl)piperidin-1-yl)-3-methyl-4-oxo-6-(trifluoromethyl)-3,4-dihydroquinazolin-8-yl)ethyl)amino)-N-(methylsulfonyl) picolinamide] | < 250 | ≥ 5000 | – | –
9 | Cc1cc([C@@H](C)Nc2ccc(Cl)nc2C(=O)NS(C)(=O)=O)c2nc(N3C[C@@H]4[C@H](C3)[C@H]4c3ccnn3C(F)F)n(C)c(=O)c2c1 [Compound 471, 6-chloro-3-(((R)-1-(2-((1R,5S,6R)-6-(1-(difluoromethyl)-1H-pyrazol-5-yl)-3-azabicyclo[3.1.0]hexan-3-yl)-3,6-dimethyl-4-oxo-3,4-dihydroquinazolin-8-yl)ethyl)amino)-N-(methylsulfonyl) picolinamide] | < 250 | 1000 to 5000 | – | –
10 | [2H]C([2H])([2H])n1nc([C@H]2[C@@H]3CN(c4nc5c([C@@H](C)Nc6ccc(Cl)nc6C(=O)NS(C)(=O)=O)cc(C)cc5c(=O)n4C)C[C@@H]32)c(Cl)c1C [Compound 661, 6-chloro-3-(((R)-1-(2-((1R,5S,6R)-6-(4-chloro-5-methyl-1-(methyl-d3)-1H-pyrazol-3-yl)-3-azabicyclo[3.1.0]hexan-3-yl)-3,6-dimethyl-4-oxo-3,4-dihydroquinazolin-8-yl)ethyl)amino)-N-(methylsulfonyl) picolinamide] | 250 to 500 | ≥ 5000 | – | –
11 | Cc1cc([C@@H](C)Nc2ccc(Cl)nc2C(=O)NS(C)(=O)=O)c2nc(N3C[C@H]4C[C@@H]3CN4c3ccc(F)cn3)n(C)c(=O)c2c1 [Compound 602, 6-chloro-3-(((R)-1-(2-((1R,4R)-5-(5-fluoropyridin-2-yl)-2,5-diazabicyclo [2.2.1]heptan-2-yl)-3,6-dimethyl-4-oxo-3,4-dihydroquinazolin-8-yl)ethyl)amino)-N-(methylsulfonyl) picolinamide] | 250 to 500 | ≥ 5000 | – | –
12 | Cc1cc([C@@H](C)Nc2ccc(Cl)nc2C(=O)NS(C)(=O)=O)c2nc(N3CCC(n4c(C)nc5ccccc54)CC3)n(C)c(=O)c2c1 [Compound 268, (R)-6-chloro-3-((1-(3,6-dimethyl-2-(4-(2-methyl-1H-benzo[d]imidazol-1-yl)piperidin-1-yl)-4-oxo-3,4-dihydroquinazolin-8-yl)ethyl)amino)-N-(methylsulfonyl) picolinamide] | – | – | < 250 | ≥ 5000
13 | Cc1cc([C@@H](C)Nc2ccc(Cl)nc2C(=O)NS(C)(=O)=O)c2nc(-c3ccc4nn(C5CC5)cc4c3)n(C)c(=O)c2c1 [Compound 819, (R)-6-chloro-3-((1-(2-(2-cyclopropyl-2H-indazol-5-yl)-3,6-dimethyl-4-oxo-3,4-dihydroquinazolin-8-yl)ethyl)amino)-N-(methylsulfonyl) picolinamide] | 250 to 500 | 1000 to 5000 | – | –
14 | Cc1cc([C@@H](C)Nc2ccc(Cl)nc2C(=O)NS(C)(=O)=O)c2nc([C@H]3[C@@H]4CN(c5nccc(C)n5)C[C@@H]43)n(C)c(=O)c2c1 [Compound 826, 6-chloro-3-(((R)-1-(3,6-dimethyl-2-((1R,5S,6r)-3-(4-methylpyrimidin-2-yl)-3-azabicyclo[3.1.0]hexan-6-yl)-4-oxo-3,4-dihydroquinazolin-8-yl)ethyl)amino)-N-(methylsulfonyl) picolinamide] | 250 to 500 | ≥ 5000 | – | –
15 | Cc1cc([C@@H](C)Nc2ccc(Cl)nc2C(=O)NS(C)(=O)=O)c2nc(N3CCC(c4cncc(C)n4)CC3)n(C)c(=O)c2c1 [Compound 399, (R)-6-chloro-3-((1-(3,6-dimethyl-2-(4-(6-methylpyrazin-2-yl)piperidin-1-yl)-4-oxo-3,4-dihydroquinazolin-8-yl)ethyl)amino)-N-(methylsulfonyl) picolinamide] | – | – | < 250 | ≥ 5000
16 | Cc1cc([C@@H](C)Nc2ccc(Cl)nc2C(=O)NS(C)(=O)=O)c2nc(N3CCC(C)(c4ccn(C)n4)CC3)n(C)c(=O)c2c1 [Compound 301, (R)-6-chloro-3-((1-(3,6-dimethyl-2-(4-methyl-4-(1-methyl-1H-pyrazol-3-yl)piperidin-1-yl)-4-oxo-3,4-dihydroquinazolin-8-yl)ethyl)amino)-N-(methylsulfonyl) picolinamide] | – | – | < 250 | ≥ 5000
17 | Cc1cc([C@@H](C)Nc2ccc(Cl)nc2C(=O)NS(C)(=O)=O)c2nc(N3CCc4nn(C)cc4C3)n(C)c(=O)c2c1 [Compound 286, (R)-6-chloro-3-((1-(3,6-dimethyl-2-(2-methyl-2,4,6,7-tetrahydro-5H-pyrazolo[4,3-c]pyridin-5-yl)-4-oxo-3,4-dihydroquinazolin-8-yl)ethyl)amino)-N-(methylsulfonyl) picolinamide] | – | – | < 250 | 1000 to 5000
18 | [2H]C([2H])([2H])n1ncc2cc(-c3nc4c([C@@H](C)Nc5ccc(Cl)nc5C(=O)NS(C)(=O)=O)cc(C)cc4c(=O)n3C)ccc21 [Compound 818, (R)-6-chloro-3-((1-(3,6-dimethyl-2-(1-(methyl-d3)-1H-indazol-5-yl)-4-oxo-3,4-dihydroquinazolin-8-yl)ethyl)amino)-N-(methylsulfonyl) picolinamide] | < 250 | 1000 to 5000 | – | –
19 | Cc1cc([C@@H](C)Nc2ccc(Cl)nc2C(=O)NS(C)(=O)=O)c2nc(N3CCn4ncc(F)c4C3)n(C)c(=O)c2c1 [Compound 711, (R)-6-chloro-3-((1-(2-(3-fluoro-6,7-dihydropyrazolo[1,5-a]pyrazin-5(4H)-yl)-3,6-dimethyl-4-oxo-3,4-dihydroquinazolin-8-yl)ethyl)amino)-N-(methylsulfonyl) picolinamide] | 250 to 500 | 1000 to 5000 | – | –
20 | Cc1cc([C@@H](C)Nc2ccc(Cl)nc2C(=O)NS(C)(=O)=O)c2nc(N3CCC[C@@H](c4ccn(C(F)F)n4)C3)n(C)c(=O)c2c1 (relative stereo) [Compound 768, 6-chloro-3-(((R)-1-(2-((R*)-3-(1-(difluoromethyl)-1H-pyrazol-3-yl)piperidin-1-yl)-3,6-dimethyl-4-oxo-3,4-dihydroquinazolin-8-yl)ethyl)amino)-N-(methylsulfonyl) picolinamide] | 250 to 500 | ≥ 5000 | – | –
